Reference: patent US8969020B2, “Peptide sequence that promotes tumor invasion” (MetaMol Theranostics LLC, priority 2005, dated 2015)

Columns and labels:
Type in all cases: cell-based, human
MCF-7 cells [1] = test: Soft agar colony formation by MCF-7 cells with synthetic peptide added; conditions: after ten days, peptide replenished with every addition of medium
Experimental: To assess effect on soft agar colony formation, 5×10^5 MCF-7 cells per 60-mm dish were plated in triplicates with a top layer of 0.3% agar (BACTO Agar, Difco, Detroit Mich.) and a bottom layer of 0.5% agar (both in a-MEM). Peptide SEQ ID NO: 37 was added at the indicated concentrations upon plating and was replenished with every addition of medium. Every other day, 0.4 ml of medium was supplemented. After ten days, photographs were taken at high and low magnification and the surface area of all clones in five fields was measured with the imaging software ImageJ (NIH) or Metamorph.
(§1) 5×10^5 MCF-7 cells per 60-mm dish were plated in triplicates with a top layer of 0.3% agar (BACTO Agar, Difco, Detroit, Mich.) and a bottom layer of 0.5% agar (both in α-MEM). Peptide was added at the indicated concentrations upon plating and was replenished with every addition of medium. For the investigation of cell growth rates, MCF-7 cells were plated at 5000 cells/well in 24-well plates in the presence or absence of peptide. Effects of a synthetic peptide on MDA-MB-435 cells are shown in FIG. 9C after 10 days in the presence or absence of synthetic peptides. hOPN Exon-5 peptide (NAVSSEETNDFKQE) SEQ ID NO: 34 and scrambled hOPN-c peptide (SSEEQETGVEKASSNS) SEQ ID NO: 33 served as non-specific controls.

MCF-7 cells [2] = test: Cell growth rate of MCF-7 cells in 24-well plates with or without peptide; conditions: 5000 cells/well, daily cell counts
Experimental: Two control peptides (hOPN-c scrambled sequence SEQ ID NO: 33 and hOPN-exon5 SEQ ID NO: 34) had no effect (data not shown). […] For investigation of cell growth rates, MCF-7 cells were plated at 5000 cells/well in 24-well plates in the presence or absence of peptide. Daily, five wells per group were harvested by trypsinization and the cell numbers were determined in a Coulter™ Z-Series Counter.
as §1

MCF-7 cells [3] = test: Adhesion of MCF-7 cells to coated wells; conditions: 2 hours at 37° C., 96-well plate coated overnight
Experimental: 96-well polystyrene plates were coated with the indicated amounts of GST-OPN forms or control fibronectin ([…]) in […] at 4° C. overnight. The wells were washed twice with cold PBS followed by blocking with 1% BSA for 1 h at 37° C. MCF-7 parental cells were used to assay adhesion. Cells were trypsinized and treated with soybean trypsin inhibitor, then washed twice with PBS and resuspended in adhesion buffer (0.1% BSA, 1 mM sodium pyruvate, 2 mM MgCl2). Cells (2×10^4 cell/well) were added to the above 96-well plates and allowed to adhere at 37° C. for two hours. Non-adherent cells were removed by rinsing twice with PBS. Adherent cells were counted and photographed. For adhesion to aggregated OPN, 1 μg of GST or GST-OPN forms were added to 96-well plated in aggregation buffer (0.2 M NaCl, 0.05 M Tris-HCl, pH 7.6, 5 mM CaCl2 final concentration) and incubated at 4° C. overnight. All adhesion assays were performed with triplicate wells and were repeated at least three times.
Stably transfected cells were plated at 5000 cells/well (24-well plate) on day 0. On every consecutive day, five wells per cell line were harvested and the total number of cells was counted. […] Aggregation was assessed after 16 hours at increasing calcium concentrations. Consecutively denaturing, non-reducing SDS-PAGE and Western blotting for OPN was performed. […]

**Q.** Which results are given for “SGSSEEKQNAVSSEET (Peptide representing a domain encompassing the splice junction of Exon 3 and 5) [SEQ ID NO: 8, OPNc peptide, domain around the splice junction of OPN variant-c]”?
**A.** size of the clones formed in soft agar (MCF-7 cells [1]): enhanced soft agar clone formation; cell growth (MCF-7 cells [2]): did not support the growth of cells in plastic dishes

**Q.** For “NAVSSEETNDFKQE (Control peptide derived from Exon 5) [SEQ ID NO: 34, hOPN Exon-5 peptide, non-specific control, reference compound]”, which “size of the clones formed in soft agar” value (MCF-7 cells [1]) is on record?
**A.** Its value is “no effect”.

**Q.** For Ac-SGSSEEKQNAVSSEET-NH2 [SEQ ID NO: 37], which “size of the clones formed in soft agar” value (MCF-7 cells [1]) is on record?
**A.** The value was “increasing the size of the clones formed in soft agar”.

**Q.** What about the cell growth (MCF-7 cells [2]) of the same substance?
**A.** Its cell growth is “no effect on cell growth”.

**Q.** Which “size of the clones formed in soft agar” value (MCF-7 cells [1]) does the source give for “SSEEQETGVEKASSNS (Control peptide for OPNcPEP) [SEQ ID NO: 33, scrambled hOPN-c peptide, non-specific control, reference compound]” here?
**A.** The value was “no effect”.

**Q.** How did the “cell spreading of adhered cells on coated plastic” value (MCF-7 cells [3]) turn out when fibronectin was run?
**A.** The value was “cell spreading”.
